pEC50, pIC50: −log10 of the molar value.
Assays:
SARS-CoV-2 3CL-protease = SARS-CoV-2 3CL-protease (Severe acute respiratory syndrome coronavirus 2, UniProt P0DTD1); experiment: SARS-CoV-2 3C-like (3CL) protease fluorescence assay (FRET); assay type: biochemical; details: recombinant SARS-CoV-2 3CL-protease 10 nM, 30 min preincubation, run in duplicate; read-out: FRET IC50
[1] = tested on: 229E human corona virus (hCoV); experiment: 229E live virus assay (CPE, ATPlite readout in MRC-5 cells); assay type: cell-based, hCoV-229E; details: Human coronavirus 229E, MRC5, 144 h, MOI 0.05, 6 days at 34° C., run in duplicate

SMILES | pIC50 (SARS-CoV-2 3CL-protease) | pEC50 [1]
CC(C)(C)C[C@H](NC(=O)C(=O)NC1CCCCC1)C(=O)N1C[C@]2(C[C@H]1C#N)C(=O)Nc1ccccc12 [Example 97] | > 7.00 | > 7.00
CC(C)(C)C[C@H](NC(=O)C(=O)NC1CCCC1)C(=O)N1C[C@]2(C[C@H]1C#N)C(=O)Nc1ccccc12 [Example 98] | > 7.00 | > 7.00
CC(C)C[C@H](NC(=O)C(=O)Nc1ccc(F)cc1)C(=O)N1C[C@]2(C[C@H]1C#N)C(=O)Nc1ccccc12 [Example 115] | > 7.00 | > 7.00
CC(C)[C@H](NC(=O)C(=O)N[C@@H](CC(C)(C)C)C(=O)N1C[C@]2(C[C@H]1C#N)C(=O)Nc1ccccc12)c1ccccc1 [Example 116] | > 7.00 | > 7.00
CC(C)(C)C[C@H](NC(=O)C(=O)Nc1c(Cl)cccc1Cl)C(=O)N1C[C@]2(C[C@H]1C#N)C(=O)Nc1ccccc12 [Example 117] | > 7.00 | > 7.00
CC(C)(C)C[C@H](NC(=O)C(=O)NC1(c2ccccc2)CC1)C(=O)N1C[C@]2(C[C@H]1C#N)C(=O)Nc1ccccc12 [Example 118] | > 7.00 | > 7.00
CC(C)(C)C[C@H](NC(=O)C(=O)NC1(c2ccccc2)CCC1)C(=O)N1C[C@]2(C[C@H]1C#N)C(=O)Nc1ccccc12 [Example 119] | > 7.00 | > 7.00
CC(C)(C)C[C@H](NC(=O)C(=O)NC1CC(F)(F)C1)C(=O)N1C[C@]2(C[C@H]1C#N)C(=O)Nc1ccccc12 [Example 120] | > 7.00 | > 7.00
CC(C)(C)C[C@H](NC(=O)C(=O)Nc1c(C(F)(F)F)cccc1C(F)(F)F)C(=O)N1C[C@]2(C[C@H]1C#N)C(=O)Nc1ccccc12 [Example 138] | > 7.00 | > 7.00
CC(C)(C)C[C@H](NC(=O)C(=O)NCc1ccccc1)C(=O)N1C[C@]2(C[C@H]1C#N)C(=O)Nc1ccccc12 [Example 159] | > 7.00 | > 7.00
C[C@@H](NC(=O)C(=O)N[C@@H](CC(C)(C)C)C(=O)N1C[C@]2(C[C@H]1C#N)C(=O)Nc1ccccc12)c1ccccc1 [Example 160] | > 7.00 | > 7.00
C[C@H](NC(=O)C(=O)N[C@@H](CC(C)(C)C)C(=O)N1C[C@]2(C[C@H]1C#N)C(=O)Nc1ccccc12)c1ccccc1 [Example 161] | > 7.00 | > 7.00
CC(C)(C)C[C@H](NC(=O)C(=O)c1ccccc1)C(=O)N1C[C@]2(C[C@H]1C#N)C(=O)Nc1ccccc12 [Example 179] | 6.00 to 7.00 | 6.00 to 7.00
CC(C)(C)C[C@H](NC(=O)C(=O)C(C)(C)C)C(=O)N1C[C@]2(C[C@H]1C#N)C(=O)Nc1ccccc12 [Example 180] | < 6.00 | 6.00 to 7.00
CC(C)(C)C[C@H](NC(=O)C(=O)c1c[nH]c2ccccc12)C(=O)N1C[C@]2(C[C@H]1C#N)C(=O)Nc1ccccc12 [Example 181] | 6.00 to 7.00 | 6.00 to 7.00
CC(C)(C)C[C@H](NC(=O)C(=O)c1ccccc1F)C(=O)N1C[C@]2(C[C@H]1C#N)C(=O)Nc1ccccc12 [Example 182] | 6.00 to 7.00 | 6.00 to 7.00
CC(C)(C)C[C@H](NC(=O)C(=O)C1CCCCC1)C(=O)N1C[C@]2(C[C@H]1C#N)C(=O)Nc1ccccc12 [Example 183] | > 7.00 | 6.00 to 7.00
[2H]C([2H])([2H])N(C(=O)C(=O)NCc1ccc(F)cc1F)[C@@H](CC1CC1)C(=O)N1C[C@]2(C[C@H]1C#N)C(=O)Nc1ccccc12 [Example 190] | > 7.00 | > 7.00
[2H]C([2H])([2H])N(C(=O)C(=O)NC1(c2ccc(F)cc2F)CC1)[C@@H](CC1CC1)C(=O)N1C[C@]2(C[C@H]1C#N)C(=O)Nc1ccccc12 [Example 191] | > 7.00 | > 7.00
[2H]C([2H])([2H])N(C(=O)C(=O)NCC1(C(F)(F)F)CC1)[C@@H](CC1CC1)C(=O)N1C[C@]2(C[C@H]1C#N)C(=O)Nc1ccccc12 [Example 192] | > 7.00 | > 7.00
[2H]C([2H])([2H])N(C(=O)C(=O)Nc1c(C(F)(F)F)cccc1C(F)(F)F)[C@@H](CC1CC1)C(=O)N1C[C@]2(C[C@H]1C#N)C(=O)Nc1ccccc12 [Example 193] | > 7.00 | > 7.00
CC(C)C[C@H]1C(=O)N2C[C@]3(C[C@H]2C#N)C(=O)Nc2ccc(cc23)CCCCNC(=O)C(=O)N1C [Example 211] | 6.00 to 7.00 | 6.00 to 7.00
CC(C)C[C@H]1C(=O)N2C[C@]3(C[C@H]2C#N)C(=O)Nc2ccc(cc23)CCCCN(Cc2ccccc2)C(=O)C(=O)N1C [Example 212] | 6.00 to 7.00 | 6.00 to 7.00
CC(C)C[C@H]1C(=O)N2C[C@]3(C[C@H]2C#N)C(=O)Nc2ccc(cc23)CCCCCNC(=O)C(=O)N1C [Example 213] | 6.00 to 7.00 | 6.00 to 7.00
CC(C)C[C@H]1C(=O)N2C[C@]3(C[C@H]2C#N)C(=O)Nc2ccc(cc23)/C=C\CCNC(=O)C(=O)N1C [Example 214] | 6.00 to 7.00 | 6.00 to 7.00
